Test results: paper PMC5513037, “Examining the influence of specificity ligands and ATP-competitive ligands on the overall effectiveness of bivalent kinase inhibitors” (Proteome Science, 2017)

How the values were obtained:
Experiment in all cases: KAM-matrix competition in K562 lysate
Type in all cases: binding
[1] = biological target: T1, MAP3K6 (Homo sapiens, UniProt O95382)
T1 construct: endogenous in cells; host or cells: K562
T1 sequence (O95382 1-1288): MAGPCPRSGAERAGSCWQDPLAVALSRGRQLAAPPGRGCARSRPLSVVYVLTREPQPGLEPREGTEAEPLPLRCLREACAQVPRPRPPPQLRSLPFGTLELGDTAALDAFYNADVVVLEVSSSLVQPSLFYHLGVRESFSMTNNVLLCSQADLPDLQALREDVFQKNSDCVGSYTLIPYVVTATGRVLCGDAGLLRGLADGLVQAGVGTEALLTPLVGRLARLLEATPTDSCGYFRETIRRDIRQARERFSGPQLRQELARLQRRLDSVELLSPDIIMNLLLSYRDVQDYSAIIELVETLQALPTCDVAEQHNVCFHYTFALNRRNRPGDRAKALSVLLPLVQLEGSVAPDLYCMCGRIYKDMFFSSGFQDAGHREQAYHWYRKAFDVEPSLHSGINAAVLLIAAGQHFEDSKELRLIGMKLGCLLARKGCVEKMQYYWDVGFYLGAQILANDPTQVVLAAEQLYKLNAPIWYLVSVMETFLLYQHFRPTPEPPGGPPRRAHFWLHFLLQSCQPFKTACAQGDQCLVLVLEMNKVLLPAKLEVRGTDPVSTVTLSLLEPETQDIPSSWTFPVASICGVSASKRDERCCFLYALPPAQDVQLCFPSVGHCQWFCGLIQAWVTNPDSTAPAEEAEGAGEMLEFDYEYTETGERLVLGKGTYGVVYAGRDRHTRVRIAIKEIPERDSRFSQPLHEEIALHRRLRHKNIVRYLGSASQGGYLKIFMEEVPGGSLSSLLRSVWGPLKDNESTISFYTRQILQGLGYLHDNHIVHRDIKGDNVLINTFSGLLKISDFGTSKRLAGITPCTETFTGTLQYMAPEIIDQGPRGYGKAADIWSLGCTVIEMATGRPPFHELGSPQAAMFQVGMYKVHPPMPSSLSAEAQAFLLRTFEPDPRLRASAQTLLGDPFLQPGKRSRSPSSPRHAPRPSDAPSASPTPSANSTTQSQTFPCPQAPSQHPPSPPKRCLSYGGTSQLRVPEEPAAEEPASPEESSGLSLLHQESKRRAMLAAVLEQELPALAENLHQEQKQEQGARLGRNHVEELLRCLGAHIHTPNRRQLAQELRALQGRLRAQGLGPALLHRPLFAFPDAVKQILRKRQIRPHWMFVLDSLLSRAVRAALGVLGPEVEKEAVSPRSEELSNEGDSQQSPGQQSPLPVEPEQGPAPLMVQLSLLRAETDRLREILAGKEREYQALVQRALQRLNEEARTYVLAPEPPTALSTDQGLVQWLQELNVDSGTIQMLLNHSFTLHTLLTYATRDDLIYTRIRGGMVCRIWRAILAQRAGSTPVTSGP
Method: (§1) Supplement 12953_2017_125_MOESM1_ESM.zip/MS_Supp Info.xlsx, sheet "KAM" | column: 10 uM KAM; 1 uM KAM; 0.1 uM KAM; 0.01 uM KAM; 0.001 uM KAM; RB50

[2] = biological target: T2, PAK6 (Homo sapiens, UniProt Q9NQU5)
T2 construct: endogenous in cells; host or cells: K562
Method: as §1

[3] = biological target: T3, TAOK3 (Homo sapiens, UniProt Q9H2K8)
T3 construct: endogenous in cells; host or cells: K562
T3 sequence (Q9H2K8 1-898): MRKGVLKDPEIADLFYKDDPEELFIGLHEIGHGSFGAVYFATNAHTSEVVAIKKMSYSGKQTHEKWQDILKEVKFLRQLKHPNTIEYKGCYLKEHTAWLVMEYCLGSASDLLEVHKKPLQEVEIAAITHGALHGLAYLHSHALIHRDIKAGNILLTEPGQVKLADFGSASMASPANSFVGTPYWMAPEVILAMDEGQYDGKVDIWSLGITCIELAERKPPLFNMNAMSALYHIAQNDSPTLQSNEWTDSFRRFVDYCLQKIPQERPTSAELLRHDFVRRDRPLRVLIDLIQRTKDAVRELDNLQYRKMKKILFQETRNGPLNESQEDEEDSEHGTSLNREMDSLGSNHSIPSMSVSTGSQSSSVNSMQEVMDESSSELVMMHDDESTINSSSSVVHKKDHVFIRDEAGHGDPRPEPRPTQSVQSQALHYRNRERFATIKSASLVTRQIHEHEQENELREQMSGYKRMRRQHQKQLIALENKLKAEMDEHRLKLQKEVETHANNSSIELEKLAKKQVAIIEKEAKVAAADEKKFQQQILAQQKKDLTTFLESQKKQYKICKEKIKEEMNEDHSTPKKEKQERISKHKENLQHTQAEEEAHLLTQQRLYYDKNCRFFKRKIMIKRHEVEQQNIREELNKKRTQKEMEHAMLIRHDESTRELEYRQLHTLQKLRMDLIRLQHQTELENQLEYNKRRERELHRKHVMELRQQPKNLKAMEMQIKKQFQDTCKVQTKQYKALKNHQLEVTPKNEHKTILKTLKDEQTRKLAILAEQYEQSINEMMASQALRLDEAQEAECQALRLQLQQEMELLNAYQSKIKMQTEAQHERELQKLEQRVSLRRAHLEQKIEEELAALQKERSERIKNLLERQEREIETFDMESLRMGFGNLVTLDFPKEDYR
Method: as §1

[4] = read-out: RB50 (the source's name)

T2 sequence (Q9NQU5 whole entry): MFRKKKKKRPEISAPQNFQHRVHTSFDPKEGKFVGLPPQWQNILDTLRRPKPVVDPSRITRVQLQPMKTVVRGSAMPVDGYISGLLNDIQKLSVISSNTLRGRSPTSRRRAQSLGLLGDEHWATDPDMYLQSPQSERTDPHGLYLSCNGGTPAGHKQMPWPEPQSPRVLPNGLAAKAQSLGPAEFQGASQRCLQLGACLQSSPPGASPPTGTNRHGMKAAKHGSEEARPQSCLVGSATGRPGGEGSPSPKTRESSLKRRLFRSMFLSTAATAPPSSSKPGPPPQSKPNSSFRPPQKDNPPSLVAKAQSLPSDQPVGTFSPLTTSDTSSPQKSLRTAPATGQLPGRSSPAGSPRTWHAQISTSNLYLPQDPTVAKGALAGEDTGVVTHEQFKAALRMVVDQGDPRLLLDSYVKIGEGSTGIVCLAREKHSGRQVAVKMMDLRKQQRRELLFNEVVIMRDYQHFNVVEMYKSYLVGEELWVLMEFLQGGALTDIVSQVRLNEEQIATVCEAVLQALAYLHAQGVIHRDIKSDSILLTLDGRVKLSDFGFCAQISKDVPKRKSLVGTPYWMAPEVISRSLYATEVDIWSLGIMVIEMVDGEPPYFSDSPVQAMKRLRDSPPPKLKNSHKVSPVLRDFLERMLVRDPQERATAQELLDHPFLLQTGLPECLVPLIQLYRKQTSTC

`N#CCc1ccc(Nc2nc(NCCCN)cc(Nc3cc(C4CC4)[nH]n3)n2)cc1` [KAM] was tested, and the “median Log10 fold change” value ([1]; 0.001 uM KAM) was -0.04109, the “median Log10 fold change” value ([1]; 0.01 uM KAM) was -0.01116 and the “median Log10 fold change” value ([1]; 0.1 uM KAM) was -0.09429. For the same molecule, the “median Log10 fold change” value ([1]; 1 uM KAM) was -0.1699, the “median Log10 fold change” value ([1]; 10 uM KAM) was -0.3363 and the IC50 [1, 4] was 5.37 µM. The “median Log10 fold change” value ([2]; 0.001 uM KAM) was -0.09371, the “median Log10 fold change” value ([2]; 0.01 uM KAM) was 0.03145 and the “median Log10 fold change” value ([2]; 0.1 uM KAM) was -0.196. For the same molecule, the “median Log10 fold change” value ([2]; 1 uM KAM) was -0.3777, the “median Log10 fold change” value ([2]; 10 uM KAM) was -0.6349 and the IC50 [2, 4] was 0.519 µM. The “median Log10 fold change” value ([3]; 0.001 uM KAM) was -0.0153, the “median Log10 fold change” value ([3]; 0.01 uM KAM) was 0.005812 and the “median Log10 fold change” value ([3]; 0.1 uM KAM) was -0.1317. For the same molecule, the “median Log10 fold change” value ([3]; 1 uM KAM) was -0.2502, the “median Log10 fold change” value ([3]; 10 uM KAM) was -0.3407 and the IC50 [3, 4] was 2.69 µM.
